Results from patent EP0747380B1, “Compounds and compositions with nitrogen-containing non-basic side chains” (ELI LILLY AND COMPANY, priority 1995, dated 1996).
Several values for one entry are separate records, joined by “and”; a condition that tells them apart may be missing. Equal entries are not always repeated.

How the values were obtained:
uterus = assay: Uterine wet weight, post-menopausal (OVX) rat model, four day dosing regimen; assay type: in vivo, female Sprague Dawley rats; conditions: oral, daily for 4 days, OVX rats, * = significantly different than OVX control
Experimental: In the examples illustrating the methods, a post-menopausal model was used in which effects of different treatments upon various biological parameters were determined, including serum cholesterol concentration, uterine weight, eosinophil peroxidase activity, MCF-7 cell proliferation, and bone density.
(§1) Animals were dosed daily for 4 days. […] A blood sample was collected by cardiac puncture.

[1] = system: eosinophil peroxidase activity; assay: Uterine eosinophil peroxidase (EPO) assay, OVX rat, four day dosing regimen; conditions: oral, daily for 4 days, OVX rats, * = significantly different than OVX control
Text: Seventy-five day old female Sprague Dawley rats (weight range of 200 to 225 g) were obtained from Charles River Laboratories (Portage, MI). The animals were either bilaterally ovariectomized (OVX) or exposed to a sham surgical procedure (Intact) at Charles River Laboratories, and then shipped after one week. Upon arrival, they were housed in metal hanging cages in groups of 3 or 4 per cage and had ad libitum access to food (calcium content approximately 0.5%) and water for one week. […] The photoperiod in the room was 12 hours light and 12 hours dark.
After a one week acclimation period (therefore, two weeks post-OVX), daily dosing with test compound was initiated. 17α-Ethynyl estradiol (EE2) (Sigma Chemical Co., St. Louis, MO), an orally available form of estrogen, or the test compound were given orally, unless otherwise stated, as a suspension in 1% carboxymethyl cellulose or dissolved in 20% cyclodextrin. Animals were dosed daily for 4 days. Following the dosing regimen, animals were weighed and anesthetized with a ketamine:xylazine (2:1, v:v) mixture. A blood sample was collected by cardiac puncture. The animals were then sacrificed by asphyxiation with CO2, the uterus was removed through a midline incision, and a wet uterine weight was determined.
Uteri were kept at 4° C until time of enzymatic analysis. The uteri were then homogenized in 50 volumes of 50 mM Tris buffer (pH - 8.0) containing 0.005% Triton X-100. Upon addition of 0.01% hydrogen peroxide and 10 mM o-phenylenediamine (final concentrations) in Tris buffer, increase in absorbance was monitored for one minute at 450 nm. […] The maximal velocity of a 15 second interval was determined over the initial, linear portion of the reaction curve.

serum cholesterol = assay: Serum cholesterol analysis, OVX rat, four day dosing regimen; assay type: in vivo, female Sprague Dawley rats; conditions: oral, daily for 4 days, OVX rats, * = significantly different than OVX control; for inhibition in vivo at 0.1 mg/kg / inhibition in vivo at 1 mg/kg / inhibition in vivo at 10 mg/kg: Rattus norvegicus, 96 h, read-out: Serum Cholesterol (% dec. OVX)
Experimental: as §1
Blood samples were allowed to clot at room temperature for 2 hours, and serum was obtained following centrifugation for 10 minutes at 3000 rpm. Serum cholesterol was determined using a Boehringer Mannheim Diagnostics high performance cholesterol assay. Briefly the cholesterol was oxidized to cholest-4-en-3-one and hydrogen peroxide. The hydrogen peroxide was then reacted with phenol and 4-aminophenazone in the presence of peroxidase to produce a p-quinone imine dye, which was read spectrophotemetrically at 500 nm. Cholesterol concentration was then calculated against a standard curve. The entire assay was automated using a Biomek Automated Workstation.

[2] = system: MCF-7 breast adenocarcinoma cells; assay: MCF-7 proliferation assay (tritiated thymidine incorporation); assay type: cell-based; conditions: Homo sapiens, MCF7; MCF-7 cells, 48 hours with drug, tritiated thymidine pulse 4 hours; read-out: ED50 (the source's name)
Experimental: MCF-7 breast adenocarcinoma cells (ATCC HTB 22) were maintained in MEM (minimal essential medium, phenol red-free, Sigma, St. Louis, MO) supplemented with 10% fetal bovine serum (FBS) (V/V), L-glutamine (2 mM), sodium pyruvate (1 mM), HEPES {(N-[2-hydroxyethyl]piperazine-N'-[2-ethanesulfonic acid]10 mM}, non-essential amino acids and bovine insulin (1 µg/ml) (maintenance medium). Ten days prior to assay, MCF-7 cells were switched to maintenance medium supplemented with 10% dextrancoated charcoal stripped fetal bovine serum (DCC-FBS) assay medium) in place of 10% FBS to deplete internal stores of steroids. MCF-7 cells were removed from maintenance flasks using cell dissociation medium (Ca++/Mg++ free HBSS (phenol red-free) supplemented with 10 mM HEPES and 2 mM EDTA). Cells were washed twice with assay medium and adjusted to 80,000 cells/ml. […] Serial dilutions of drugs or DMSO as a diluent control were prepared in assay medium and […] to triplicate microcultures followed by 50 ml assay medium for a final volume of […]. After an additional 48 hours at 37° C in a 5% CO2 humidified incubator, microcultures were pulsed with tritiated thymidine (1 uCi/well) for 4 hours. Cultures were terminated by freezing at -70° C for 24 hours followed by thawing and harvesting of microcultures. Samples were counted by liquid scintillation.

SMILES	Uterine Weight (% inc. OVX) (uterus; Dose 0.1 mg/kg)	Uterine Weight (% inc. OVX) (uterus; Dose 1 mg/kg)	Uterine Weight (% inc. OVX) (uterus; Dose 10 mg/kg)	Uterine EPO (Vmax) ([1]; Dose 0.1 mg/kg)	Uterine EPO (Vmax) ([1]; Dose 1 mg/kg)	Uterine EPO (Vmax) ([1]; Dose 10 mg/kg)	inhibition in vivo at 0.1 mg/kg (serum cholesterol; Dose 0.1 mg/kg)	inhibition in vivo at 1 mg/kg (serum cholesterol; Dose 1 mg/kg)	inhibition in vivo at 10 mg/kg (serum cholesterol; Dose 10 mg/kg)	EC50 [2]	Uterine EPO (Vmax) ([1]; Dose 0.01 mg/kg)	Serum Cholesterol (% dec. OVX) (serum cholesterol; Dose 0.1 mg/kg)	Serum Cholesterol (% dec. OVX) (serum cholesterol; Dose 1 mg/kg)	Serum Cholesterol (% dec. OVX) (serum cholesterol; Dose 10 mg/kg)
O=C(c1ccc(OCCN2CCCCC2=O)cc1)c1c(-c2ccc(O)cc2)sc2cc(O)ccc12 [Compound 3]	13.3%	17.8%	57.6* %	8.0	7.8	8.9	38.1%	45.8%	72.4%	600 nM	–	–	–	–
O=C(c1ccc(OCCN2CCCC2=O)cc1)c1c(-c2ccc(O)cc2)sc2cc(O)ccc12 [Compound 6]	-9%	15.4%	40.3* %	3.6	1.4	3.7	33.6%	52.4%	67.5%	–	–	–	–	–
COc1ccc(-c2sc3cc(OC)ccc3c2C(=O)c2ccc(OCC(=O)N3CCCCC3)cc2)cc1 [Compound 7]	-0.5%	-16.2%	8.4%	5.2	3.7	4.7	–	–	–	–	–	–	–	–
O=C(c1ccc(OCC(=O)N2CCCC2)cc1)c1c(-c2ccc(O)cc2)sc2cc(O)ccc12 [Compound 8]	–	–	–	3.6 and 4.4	6.1 and 3.7	–	–	–	–	10 nM	3.5	25.8%	69.6* % and 39.4* %	64.5* %
O=C(c1ccc(OCC(=O)N2CCCCC2)cc1)c1c(-c2ccc(O)cc2)sc2cc(O)ccc12 [Compound 9]	-10.0%	6.5%	51.7* %	2.8	3.6	32	4.2%	22%	74.3%	10 nM	–	–	–	–
CCCCN(C)C(=O)COc1ccc(C(=O)c2c(-c3ccc(O)cc3)sc3cc(O)ccc23)cc1 [Compound 10]	1.5%	-6.7%	38.0* %	4.3	3.1	17.0	-40%	19.1%	67.1%	50 nM	–	–	–	–
CN(C)C(=O)COc1ccc(C(=O)c2c(-c3ccc(O)cc3)sc3cc(O)ccc23)cc1 [Compound 12]	-7.7%	15.4%	60.7* %	3.7	6.7	122.3*	27.8%	48.2%	71.2%	–	–	–	–	–
O=C(c1ccc(OCCN2C(=O)CCC2=O)cc1)c1c(-c2ccc(O)cc2)sc2cc(O)ccc12 [Compound 13]	22.2%	7.2%	-4.0%	1.9	1.7	2.5	37.6%	12.6%	30.1%	> 1000 nM	–	–	–	–
